Assays:
[1] = system: FF2508 or MRC5 normal primary human fibroblasts; experiment: ATP production in normal fibroblasts; format: cell-based
Experimental: Intracellular ATP concentrations were measured by the luciferin—luciferase method using an ATP measuring kit (Biochain). The ATP concentration in each extract was measured with a microplate luminometer (Beckman Coulter) against standard ATP solutions used as reference. In some experiments, PC3 or LN229 cells were preincubated with sodium pyruvate for 7 h in the presence of vehicle or Gamitrinib before determination of ATP production.

[2] = system: LN229 cells; experiment: Oxygen consumption, fluorimetric assay; format: cell-based, human; conditions: tumor cells
Experimental: Treated tumor cells were analyzed using a fluorescence oxygen sensitive probe-based oxygen measuring kit (Luxcel Bioscience). For these experiments, LN229 cells were plated at increasing cell density (10-60×10^4/ml) on black body, clear bottom 96-well plates. The culture medium was replaced with 150 μl of phenol free DMEM containing 10% fetal bovine serum in the presence of 17-AAG or Gamitrinib (10 μM). Cells were further incubated with an oxygen-sensing probe (10 pmol/well), and 100 μl of heavy mineral oil was added to each well to seal the samples from ambient oxygen. After a 2 h incubation at 37° C., oxygen consumption was determined by quantifying the probe fluorescence signal in each well using a plate reader (Beckman Coulter) with excitation and emission wavelengths at 370 nm and 625 nm, respectively.

[3] = system: FF2508 or MRC5 primary human fibroblasts; experiment: AMPK activation in normal fibroblasts; format: cell-based
Experimental: (§1) For Western blotting, protein lysates were prepared from the different cell types in RIPA Buffer (150 mM NaCl, 1.0% Triton X-100, 0.5% sodium deoxycholate, 0.1% SDS, 50 mM Tris, pH 8.0) containing EDTA-free Protease Inhibitor Cocktail (Roche) and Phosphatase Inhibitor Cocktail 2 and 3 (Sigma Aldrich). Equal amounts of protein lysates were separated by SDS gel electrophoresis, transferred to PVDF membranes and incubated with primary antibodies of various specificities. Protein bands were detected by chemiluminescence.

[4] = system: mTORC1; experiment: mTORC1 signaling in tumor cells, Western blotting; format: cell-based, human
[5] = system: tumor cells; experiment: ER UPR markers (Western blotting, Xbp1 splicing, RT-qPCR); format: cell-based, human
[6] = system: V600E mutant BRAF melanoma cells; experiment: AMPK and autophagy signaling in mutant BRAF melanoma cells; format: cell-based, human
Description: Human glioblastoma LN229, prostate adenocarcinoma PC3 or LNCaP cells, or normal NIH3T3 fibroblasts were obtained from the American Tissue Culture Collection (ATCC, Manassas, Va.), and maintained in culture according to the supplier's specifications. The following wild type (WT) BRAF N-Ras mutant melanoma cells WM852 and WM1366, and melanoma cells carrying a V600E activating mutation in the BRAF oncogene, 451Lu, Me11617 and WM983B were used in this study. WT or CypD knockout Mouse Embryonic Fibroblasts (MEFs, CypD−/−) were characterized earlier 40. In some experiments, CypD−/− MEFs were stably transfected with control plasmid, WT CypD or peptidyl prolyl isomerase (PPIase)-deficient H168Q CypD mutant cDNA, and analyzed for differential recruitment of HK-II to mitochondrial or cytosolic fractions.
as §1
Samples were imaged using a Leica TCS SP2 confocal microscope. For determination of autophagy, cells under the various conditions tested were harvested after 12 h, and analyzed with an antibody to […] (LC3) by Western blotting.

[7] = system: BRAF WT melanoma cells; experiment: Melanoma cell viability by MTT, BRAF WT; format: cell-based, human
Experimental: (§2) Various cell types were seeded in triplicate onto 96-well plates at 4×10^3 cells/well, treated with vehicle, Gamitrinib or 17-AAG (0-20 μM) for 12 h, and analyzed for changes in metabolic activity by an MTT assay. For determination of apoptosis, LN229 cells ([…]) were labeled for annexin V and propidium iodide (PI) (BD Biosciences), and analyzed by multiparametric flow cytometry (BD).

[8] = system: TRAMP mice prostate; experiment: Immunohistochemistry of TRAMP prostate tissues; format: in vivo, mouse; conditions: PIN lesions
Experimental: The preclinical studies to test the efficacy and safety of Gamitrinib in a genetic mouse model of prostate cancer in immunocompetent TRAMP (Transgenic Adenocarcinoma of the Mouse Prostate) mice have been described (Kang et al., 2011). In this model, Gamitrinib was given systemically (5 mg/kg i.p. with the schedule 3 d on/2 d off) to TRAMP mice starting at 21.9 weeks of age (group 1) or 14.7 weeks of age (group 2), for 3 weeks or 5 weeks, respectively. In the control group, TRAMP mice of 24 weeks of age received vehicle. At the end of the experiment, animals in the vehicle or Gamitrinib groups were sacrificed and analyzed for localized and metastatic prostate cancer of adenocarcinoma or neuroendocrine histologic type (Kang et al., 2011).
For analysis of patient-derived or TRAMP tissues, slides were microwaved for 35 min in EDTA solution. Sections (4-μm thick) were cut from all TMA blocks and TRAMP-derived prostatic tumors and stained with a rabbit polyclonal antibody to Grp78 (1:1000) for 30 min at 22° C. IHC was performed using a Ventana BenchMark Ultra autostainer (Ventana Medical Systems), with the ultraView Universal DAB Detection Kit (Ventana) for detection of antibody reactivity. All slides were counterstained with hematoxylin Immunoreactivity for Grp78 was evaluated by two pathologists (S.F. and S.B.) and independently scored for cytoplasmic localization. When discrepancies in scoring occurred, a consensus interpretation was reached after re-examination. The percentage of immunoreactive epithelial cells was determined and assigned to one of the following four categories: 0, (0%); 1, (1%-9%); 2, (10%-49%) and 3, (50%-100%). The intensity of immunostaining was scored as absent (0), mild (1), moderate (2) or strong (3). In the case of TMA, the two parameters were multiplied to generate a weighted score for each case that ranged from 0 to 9. Cases with weighted score 0 were defined as negative. Among AdCa samples in the series under investigation, 17 cases were negative for Grp78 expression, whereas 0 cases of SCC were Grp78-negative. […]

[9] = system: LN229 cells; experiment: Apoptosis by annexin V / PI flow cytometry; format: cell-based, human; conditions: HK-II silenced cells vs control transfectants
Experimental: as §2

[10] = system: TRAMP (Transgenic Adenocarcinoma of the Mouse Prostate) mice; conditions: cited from earlier work

In the case of CO[C@H]1/C=C\C=C(/C)C(=O)NC2=CC(=O)C(NCCCCCC[P+](c3ccccc3)(c3ccccc3)c3ccccc3)=C(C[C@@H](C)C[C@H](OC)[C@H](O)[C@@H](C)/C=C(\C)[C@@H]1OC(N)=O)C2=O [Gamitrinib], the ATP production [1] is reported as “did not change ATP production”, the oxygen consumption [2] is reported as “reduced” and the AMPK activation [3] is reported as “did not activate AMPK”. The “phosphorylation of mTOR, 4EBP1 and p70S6 (mTORC1)” value [4] was “concentration dependent suppression of phosphorylation of mTOR, and its downstream kinases 4EBP1 and p70S6”, the “Grp78, CHOP or C/EBPβ expression, combined with 2-DG” value ([5]; Gamitrinib combined with 2-DG) was “translational suppression of Grp78, CHOP or C/EBPβ” and the “mRNA expression of CHOP, C/EBPβ and Grp78” value ([5]; quantitative PCR) was “time-dependent upregulation of ER UPR markers, CHOP, C/EBPβ and Grp78”. The “C/EBPβ and CHOP expression” value ([5]; tumor cells) was “induction of transcription factors, CCAAT-enhancer binding protein (C/EBPβ) and C/EBP homology protein (CHOP)”, the Grp78 expression ([5]; tumor cells) was “upregulation of the ER chaperone, Grp78” and the “Xbp1 mRNA splicing” value ([5]; tumor cells) was “de novo mRNA splicing, i.e. activation, of its target, X-Box Protein-1, Xbp1”. For the same molecule, the eIF2α phosphorylation ([5]; tumor cells) was “transient phosphorylation of PERK-regulated eIF2α”, the “time to induction of ER UPR” value ([5]; tumor cells) was at most 1 h and the IRE-1 expression ([5]; within 1 h) was “increased expression of Inositol-Requiring-1 (IRE-1) kinase”. For the same molecule, the autophagy ([6]; BRAF mutant cells) was “did not adaptively increase autophagy”, the AMPK activation ([6]; BRAF mutant melanoma cells) was “failed to activate AMPK” and the IC50 [7] was 6 ± 1.4 µM. For the same molecule, the GRP78 expression [8] was “upregulation of GRP78”, the “autophagy, LC3 conversion” value [8] was “induction of autophagy, i.e. LC3 conversion” and the “phosphorylated AMPK expression” value [8] was “increased expression of phosphorylated AMPK”. For the same molecule, the “Annexin V labeling” value [9] was “increased Annexin V labeling”, the “residual prostatic adenocarcinoma at end of experiment” value ([10]; 5 mg/kg i.p., 3 d on/2 d off) was “only one animal displayed a small residual area of prostatic adenocarcinoma” and the “Prostatic Intraepithelial Neoplasia (PIN)” value ([10]; systemic treatment) was “did not affect Prostatic Intraepithelial Neoplasia (PIN)”. For the same molecule, the “primary and metastatic prostate cancer growth” value ([10]; systemic treatment) was “inhibited primary and metastatic prostate cancer growth”.

From patent publication US20160015725A1, “METHODS OF CONTROLLING TUMOR BIOENERGETICS NETWORKS” (THE WISTAR INSTITUTE OF ANATOMY AND BIOLOGY, priority 2012, published 2016)
